According to US4693992A, “Bacitracin-metal-polyether antibiotic complexes” (International Minerals & Chemical Corp., priority 1985, dated 1987):

Legend:
[1] = test system: Eimeria tenella; test: Anticoccidial activity in chickens inoculated with Eimeria tenella (Example 12); format: in vivo, chicken; details: for Cecal Bleeding / Gain/Bird Days 0-3 / Gain/Bird Days 4-10: regrouped part of Table 2
Description: (§1) This example describes experimental testing of complexes of this invention for anticoccidial activity. Anticoccidial activities of test compounds were determined by administering the compounds (in feed) to chickens inoculated with active oocysts of Eimeria tenella. The test compounds, which are listed in Table 1 below, included four bacitracin-metal-polyether antibiotic complexes prepared according to the procedures described above. In addition, sodium lysocellin, regular bacitracin, sodium monensin, sodium lasolocid, and unmedicated inoculated and noninoculated controls were included for comparative purposes.
(§2) The test animals were Hubbard White Mountain male chicken (broiler strain) that were 5 days old at the beginning of the test. Each experimental compound was administered in a chick starter diet (Table 2) at a level of 80 g/ton and 120 g/ton. At 7 days of age, chicks were individually weighed, banded, and started on their respective treatments. Each treatment was replicated three times with five birds per replicate for a total of 15 birds per group. The test period was 10 days.
Seventy-two hours after the initiation of medication, birds were reweighed and orally inoculated with approximately 100,000 Eimeria tenella oocysts suspended in a 1 cc dose of saline. The following criteria were then evaluated over the next seven days:
A satisfactory challenge was obtained with Eimeria tenella.

[2] = Weight gain and feed utilization in chicks, 12 days (Example 14); format: in vivo, chicken; details: .0066% in feed; for Gain/Feed Data / Gains/gram Data: 12 days; for Gain/Feed Index Relative to #1 / Gains Index Relative to #1: #1 = unmedicated; for Gain/Feed Index Relative to #2 / Gains Index Relative to #2: #2 = zinc bacitracin
Description: (§3) This example describes experimetnal testing of complexes of the present invention as feed additives for improving weight gain or feed utilization efficiency in birds. Test animals were male meat-type chickens (Hubbard strain). Fluorescent room lights were on a 16 hours light/8 hours dark schedule. The chicks were allotted to the pens on the basis of weight classes, and chicks in the even numbered pens were wing banded. Group weights were obtained at the start and individual weights at the termination of the experiment. Chicks weighing between 55 and 65 grams were selected for the test. The test compounds were blended with a basal feed ration (shown in Table 2) at the indicated concentration. Birds fed […] and feed supplemented with zinc bacitracin (Baciferm® 50, International Minerals and Chemical Corp.) were used as controls. The test was continued for 11 days, after which individual weights, pen weight and feed consumption were recorded and analyzed.
All of the bacitracin-metal-polyether antibiotic complexes tested produced statistically significant increases in gains compared to the unmedicated basal ration.
The test involving test compounds 1 and 3-14 consisted of 5 replicates of 7 chicks and those involving test compound 2 consisted of 6 replicates of 7 chicks. The tests were continued for 12 days, after which individual weight gains and feed conusumption were recorded and analyzed.

[3] = test system: Eimeria tenella; test: Anticoccidial activity in chickens inoculated with Eimeria tenella oocysts (Example 11); format: in vivo; details: for Incidence of Bloody Droppings / Morbidity: 4th-6th day; for Morbidity: birds affected/birds in group; for Mortality: 4th-7th day, birds dead/birds in group; for F/G Day 0-3 / F/G Day 4-10: feed per gain
Description: as §1, §2
Seventy-two hours after the initiation of medication, birds were reweighed and orally inoculated with approximately 100,000 Eimeria tenella oocysts suspended in a 1 cc dose of saline. The following criteria were then evaluated over the next seven days: […]
a. morbidity (4th-6th day) b. mortality (4th-7th day) c. incidence of bloody droppings (4th-6th day)

[4] = Weight gain and feed utilization efficiency in chicks, 11 days (Example 13); format: in vivo, chicken; set-up: key to Average Weight: average weight in grams; details: .00275% in rye basal diet; for Average Gain / Gain/Feed Ratio: 11 days; for Average Weight / Gain/Feed: Table 4; for Average Gain Index / Gain/Feed Ratio Index: unmedicated = 100
Description: as §3

Bacitracin-Manganese-Lysocellin Complex [Example 3]
Cecal Bleeding ([1]; 14 g/ton Lasalocid (Approx.)): Moderate
Gain/Bird Days 0-3 ([1]; 14 g/ton Lasalocid (Approx.)): 61.3
Gain/Bird Days 4-10 ([1]; 14 g/ton Lasalocid (Approx.)): 154.0
Cecal Bleeding ([1]; 36 g/ton Lasalocid (Approx.)): Slight-Moderate
Gain/Bird Days 0-3 ([1]; 36 g/ton Lasalocid (Approx.)): 61.3
Gain/Bird Days 4-10 ([1]; 36 g/ton Lasalocid (Approx.)): 202.4
Incidence of Bloody Droppings ([1]; 80 g/ton in feed): Moderate
Morbidity ([1]; 80 g/ton in feed): 10/15
Mortality ([1]; 80 g/ton in feed): 0/15
F/G Day 0-3 ([1]; 80 g/ton in feed): 1.81
Gain/Bird Grams Day 0-3 ([1]; 80 g/ton in feed): 61.3 Grams
F/G Day 4-10 ([1]; 80 g/ton in feed): 2.01
Gain/Bird Grams Day 4-10 ([1]; 80 g/ton in feed): 154.0 Grams
Morbidity ([1]; 120 g/ton in feed): 2/15
Mortality ([1]; 120 g/ton in feed): 0/15
F/G Day 0-3 ([1]; 120 g/ton in feed): 1.58
Gain/Bird Grams Day 0-3 ([1]; 120 g/ton in feed): 61.3 Grams
F/G Day 4-10 ([1]; 120 g/ton in feed): 1.74
Gain/Bird Grams Day 4-10 ([1]; 120 g/ton in feed): 202.4 Grams
anticoccidial activity (in words) ([1]; 120 grams per ton): good anticoccidial activity
Gain/Feed Data [2]: .588
Gains/gram Data [2]: 202.0 gram
Gain/Feed Index Relative to #1 [2]: 104.4
Gains Index Relative to #1 [2]: 109.1
Gain/Feed Index Relative to #2 [2]: 98.6
Gains Index Relative to #2 [2]: 96.4
anticoccidial activity (in words) ([3]; 80 and 120 g/ton, mild E. tenella challenge): excellent anticoccidial activity
Incidence of Bloody Droppings ([3]; 80 g/ton in feed): None
Morbidity ([3]; 80 g/ton in feed): 1/15
Mortality ([3]; 80 g/ton in feed): 0/15
Gain, Grams Day 0-3 ([3]; 80 g/ton in feed): 61.7 Grams
Gain, Grams Day 4-10 ([3]; 80 g/ton in feed): 226.6 Grams
F/G Day 0-3 ([3]; 80 g/ton in feed): 1.62
F/G Day 4-10 ([3]; 80 g/ton in feed): 1.59
Incidence of Bloody Droppings ([3]; 120 g/ton in feed): None
Morbidity ([3]; 120 g/ton in feed): 1/15
Mortality ([3]; 120 g/ton in feed): 0/15
Gain, Grams Day 0-3 ([3]; 120 g/ton in feed): 57.7 Grams
Gain, Grams Day 4-10 ([3]; 120 g/ton in feed): 231.8 Grams
F/G Day 0-3 ([3]; 120 g/ton in feed): 1.68
F/G Day 4-10 ([3]; 120 g/ton in feed): 1.61
Average Gain [4]: 215 g
Gain/Feed Ratio [4]: 64.6
Average Weight [4]: 274.8
Gain/Feed [4]: 64.6
Average Gain Index [4]: 104.5
Gain/Feed Ratio Index [4]: 101.3

Bacitracin-Sodium-Lysocellin Complex [Example 5]
Cecal Bleeding ([1]; 14 g/ton Lasalocid (Approx.)): Severe
Gain/Bird Days 0-3 ([1]; 14 g/ton Lasalocid (Approx.)): 59.9
Gain/Bird Days 4-10 ([1]; 14 g/ton Lasalocid (Approx.)): 147.7
anticoccidial activity (in words) ([1]; 36 (0.30 of 120) grams per ton): fair anticoccidial activity
Cecal Bleeding ([1]; 36 g/ton Lasalocid (Approx.)): Moderate
Gain/Bird Days 0-3 ([1]; 36 g/ton Lasalocid (Approx.)): 58.6
Gain/Bird Days 4-10 ([1]; 36 g/ton Lasalocid (Approx.)): 169.4
Incidence of Bloody Droppings ([1]; 80 g/ton in feed): Severe
Morbidity ([1]; 80 g/ton in feed): 11/15
Mortality ([1]; 80 g/ton in feed): 0/15
F/G Day 0-3 ([1]; 80 g/ton in feed): 1.68
Gain/Bird Grams Day 0-3 ([1]; 80 g/ton in feed): 59.9 Grams
F/G Day 4-10 ([1]; 80 g/ton in feed): 2.12
Gain/Bird Grams Day 4-10 ([1]; 80 g/ton in feed): 147.7 Grams
Cecal bleeding associated with E. tenella infections ([1]; 80 gram per ton): severe
Incidence of Bloody Droppings ([1]; 120 g/ton in feed): Moderate
Morbidity ([1]; 120 g/ton in feed): 8/15
Mortality ([1]; 120 g/ton in feed): 0/15
F/G Day 0-3 ([1]; 120 g/ton in feed): 1.65
Gain/Bird Grams Day 0-3 ([1]; 120 g/ton in feed): 58.6 Grams
F/G Day 4-10 ([1]; 120 g/ton in feed): 1.83
Gain/Bird Grams Day 4-10 ([1]; 120 g/ton in feed): 169.7 Grams
anticoccidial activity (in words) ([1]; 120 grams per ton): good anticoccidial activity
Gain/Feed Data [2]: .595
Gains/gram Data [2]: 212.4 gram
Gain/Feed Index Relative to #1 [2]: 105.7
Gains Index Relative to #1 [2]: 114.8
Gain/Feed Index Relative to #2 [2]: 99.8
Gains Index Relative to #2 [2]: 101.3
Morbidity ([3]; 80 g/ton in feed): 4/15
Mortality ([3]; 80 g/ton in feed): 0/15
Gain, Grams Day 0-3 ([3]; 80 g/ton in feed): 56.1 Grams
Gain, Grams Day 4-10 ([3]; 80 g/ton in feed): 219.9 Grams
F/G Day 0-3 ([3]; 80 g/ton in feed): 1.70
F/G Day 4-10 ([3]; 80 g/ton in feed): 1.62
Incidence of Bloody Droppings ([3]; 120 g/ton in feed): Moderate
Morbidity ([3]; 120 g/ton in feed): 1/15
Mortality ([3]; 120 g/ton in feed): 1/15
Gain, Grams Day 0-3 ([3]; 120 g/ton in feed): 58.8 Grams
Gain, Grams Day 4-10 ([3]; 120 g/ton in feed): 228.3 Grams
F/G Day 0-3 ([3]; 120 g/ton in feed): 1.72
F/G Day 4-10 ([3]; 120 g/ton in feed): 1.62
Average Gain [4]: 214 g
Gain/Feed Ratio [4]: 63.1
Average Weight [4]: 274.8
Gain/Feed [4]: 63.1
Average Gain Index [4]: 104.2
Gain/Feed Ratio Index [4]: 99.0

Bacitracin-Zn-Lasalocid Complex
Gain/Feed Data [2]: .609
Gains/gram Data [2]: 213.5 gram
Gain/Feed Index Relative to #1 [2]: 108.2
Gains Index Relative to #1 [2]: 115.3
Gain/Feed Index Relative to #2 [2]: 102.2
Gains Index Relative to #2 [2]: 101.9
Average Gain [4]: 225 g
Gain/Feed Ratio [4]: 65.6
Average Weight [4]: 285.6
Gain/Feed [4]: 65.6
Average Gain Index [4]: 109.4
Gain/Feed Ratio Index [4]: 103.0
